“Also recorded” adds a separate entry of the source.

The test system of data set [1] is CFTR at the ocular surface. In words: Ocular surface potential difference (PD) in living mice. The data set is classed as in vivo, mouse. The conditions noted are these: wild-type mice. How it is done:
Open-circuit transepithelial PD were measured continuously in anesthetized mice in response to serial perfusions of different solutions over the ocular surface, as described (21). Mice were anesthetized with Avertin (2,2,2-tribromoethanol, 125 mg/kg intraperitoneal, Sigma-Aldrich, St. Louis, Mo., USA), and core temperature was maintained at 37° C. using a heating pad. Eyes were oriented with the cornea and conjunctiva facing upward and exposed by retracting the eyelid with cross-action forceps. Solutions were isosmolar (320±10 mOsM; compositions provided in ref. 21) and contained 10μ[…] indomethacin to prevent CFTR activation by prostaglandins. The ocular surface was perfused at 6 mL/min through plastic tubing using a multireservoir gravity pinch-valve system (ALA Scientific, Westbury, N.Y., USA) and variable-flow peristaltic pump (medium flow model; Fisher Scientific, Fair Lawn, N.J., USA). A probe catheter was fixed 1 mm above the cornea using a micropositioner and a suction cannula was positioned 3 mm from the orbit. The measuring electrode was in contact to the perfusion catheter and connected to a high-impedance voltmeter (IsoMilivolt Meter; WPI). The reference electrode was grounded via a winged 21-gauge needle filled with isosmolar saline, and inserted subcutaneously in the abdomen. Measuring and reference electrodes consisted of Ag/AgCl with 3 M KCl agar bridges.
An open-circuit potential difference (PD) method developed in our lab was used to evaluate compound activity at the ocular surface in vivo, as depicted in FIG. 3A (21). Cl^− channel function was quantified by measuring PD during continuous perfusion of the ocular surface with a series of solutions that imposed a transepithelial Cl^− gradient and contained various channel agonists and/or inhibitors. The ocular surface was first perfused with isosmolar saline to record the baseline PD. Amiloride was then added to the perfusate, followed by exchange to a low Cl^− solution in which Cl^− with an impermeant anion, gluconate. These maneuvers allow for direct visualization of CFTR activation in response to addition of candidate CFTR activators.
Ocular surface potential difference measurements. Open-circuit transepithelial PD were measured continuously in anesthetized mice in response to serial perfusions of different solutions over the ocular surface, as described (21). Mice were anesthetized with Avertin (2,2,2-tribromoethanol, 125 mg/kg intraperitoneal, Sigma-Aldrich, St. Louis, Mo., USA), and core temperature was maintained at 37° C. using a heating pad. Eyes were oriented with the cornea and conjunctiva facing upward and exposed by retracting the eyelid with cross-action forceps. […]

Another data set relates to LGE BALB/c mice. In words: Lacrimal gland excision (LGE) mouse model of aqueous-deficient dry eye. The format is in vivo. As for the experimental part: (§1) To assess corneal epithelial disruption, 5 μL of lissamine green (LG) dye (1%) was applied to the ocular surface of isofluorane-anesthetized mice. Photographs of the eye were taken using a Nikon Digital camera adapted to an Olympus Zoom Stereo Microscope (Olympus, Center Valley, Pa., USA). Each corneal quadrant was scored on a 3-point scale by one blinded, trained observer, with the extent of staining in each quadrant classified as: 0, no staining; 1, sporadic (involving <25% of the total surface) staining; grade 2, diffuse punctate staining (25-75%); and grade 3, coalesced punctate staining (>75%). The total grade is reported as the sum of scores from all four quadrants, ranging from 0 to 12.
A lacrimal gland excision (LGE) model of aqueous-deficient dry eye was adapted from a reported method (30). The extraorbital lacrimal gland was exposed on each side of wild-type female BALB/c mice (7-8 weeks of age) by 3-mm linear skin incisions. Lacrimal ducts were cauterized and the entire gland was removed bilaterally, avoiding facial vessels and nerves. Incisions were each closed with a single interrupted 6-0 silk suture. Orbital lacrimal tissue remained functional. Eyes with reduced corneal sensation (<5% of mice studied), as identified from neurotrophic corneal ulcers within 1 day of LGE, were excluded. Mice were randomized to receive either treatment (in both eyes) with CFTRact-K089 (0.1 nmol) or vehicle. Mice were treated three times daily (8 AM, 2 PM and 8 PM) for 2 weeks starting on Day 1 after LGE. Tear secretion and LG staining were performed immediately prior to, and one hour after the initial dose on day 4, 10 and 14 after LGE.
Lissamine green staining. […] Each corneal quadrant was scored on a 3-point scale by one blinded, trained observer, with the extent of staining in each quadrant classified as: 0, no staining; 1, sporadic (involving <25% of the total surface) staining; grade 2, diffuse punctate staining (25-75%); and grade 3, coalesced punctate staining (≥75%). […]

Data set [2] is described as follows: Tear film pharmacokinetics (LC/MS of tear washes).
Data set [3] is described as follows: Ocular toxicity after chronic topical dosing (slit-lamp, lissamine green staining). As to conditions: chronically treated mice. The data set is classed as in vivo. How it is done: as §1
as §1, with “Lissamine green staining. To” for “To”, “(≥75%).” for “(>75%).”

In a further data set the test system is FRT cells. In words: Alamar Blue cytotoxicity assay in FRT cells. The data set is classed as cell-based, rat. As to conditions: up to 100 μM, 1 or 24 h.
For the next data set, the target named is human wildtype CFTR (Homo sapiens, UniProt P13569). In words: Short-circuit current (Isc) in FRT cells expressing human wild-type CFTR.
For another data set, the system named is tear fluid secretion. The format is in vivo, mouse.
The nature of data set [4]: Compound accumulation in systemic tissues after 14 days topical dosing. The format is in vivo, mouse.

Sequence of human wildtype CFTR (P13569 whole entry): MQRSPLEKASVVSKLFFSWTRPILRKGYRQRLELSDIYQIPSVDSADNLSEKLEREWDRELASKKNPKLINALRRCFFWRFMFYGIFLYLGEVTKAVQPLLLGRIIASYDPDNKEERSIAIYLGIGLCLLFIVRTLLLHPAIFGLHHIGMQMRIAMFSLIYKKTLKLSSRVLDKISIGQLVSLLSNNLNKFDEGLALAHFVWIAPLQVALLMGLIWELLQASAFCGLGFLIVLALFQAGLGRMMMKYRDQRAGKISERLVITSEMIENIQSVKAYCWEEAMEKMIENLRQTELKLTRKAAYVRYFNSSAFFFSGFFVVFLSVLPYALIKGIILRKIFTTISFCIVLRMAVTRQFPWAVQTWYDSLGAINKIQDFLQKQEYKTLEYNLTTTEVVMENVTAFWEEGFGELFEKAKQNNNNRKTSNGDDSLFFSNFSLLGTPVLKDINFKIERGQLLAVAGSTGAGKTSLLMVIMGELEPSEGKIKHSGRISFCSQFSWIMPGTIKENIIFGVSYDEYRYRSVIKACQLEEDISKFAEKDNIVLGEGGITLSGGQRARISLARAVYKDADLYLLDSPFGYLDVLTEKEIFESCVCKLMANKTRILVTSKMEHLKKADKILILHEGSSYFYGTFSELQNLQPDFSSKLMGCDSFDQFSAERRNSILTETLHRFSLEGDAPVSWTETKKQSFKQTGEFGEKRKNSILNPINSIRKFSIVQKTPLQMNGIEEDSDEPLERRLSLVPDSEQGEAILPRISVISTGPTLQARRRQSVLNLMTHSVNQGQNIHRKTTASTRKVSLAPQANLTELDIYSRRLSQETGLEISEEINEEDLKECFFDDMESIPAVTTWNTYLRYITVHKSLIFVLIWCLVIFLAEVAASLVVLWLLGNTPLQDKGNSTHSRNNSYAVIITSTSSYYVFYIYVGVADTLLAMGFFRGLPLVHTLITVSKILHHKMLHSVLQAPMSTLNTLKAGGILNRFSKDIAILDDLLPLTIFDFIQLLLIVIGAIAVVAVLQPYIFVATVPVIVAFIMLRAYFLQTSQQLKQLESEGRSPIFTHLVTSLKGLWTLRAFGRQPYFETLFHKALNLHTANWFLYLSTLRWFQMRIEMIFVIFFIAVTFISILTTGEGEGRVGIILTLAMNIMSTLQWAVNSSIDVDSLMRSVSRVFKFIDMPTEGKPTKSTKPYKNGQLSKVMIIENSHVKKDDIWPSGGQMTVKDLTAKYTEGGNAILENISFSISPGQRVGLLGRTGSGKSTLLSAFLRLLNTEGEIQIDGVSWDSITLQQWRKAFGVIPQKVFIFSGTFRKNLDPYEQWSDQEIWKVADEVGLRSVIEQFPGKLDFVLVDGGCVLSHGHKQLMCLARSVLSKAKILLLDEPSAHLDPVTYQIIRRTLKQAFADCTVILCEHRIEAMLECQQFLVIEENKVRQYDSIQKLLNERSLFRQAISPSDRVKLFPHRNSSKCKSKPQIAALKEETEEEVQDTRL

In the case of `CCN(CC)c1nc(Nc2ccccc2)nc(OC(C(F)(F)F)C(F)(F)F)n1` [CFTRact-K089], the “hyperpolarization in ocular surface potential difference” value in data set [1] was about 8.5 mV. The “change in ocular surface PD” value in data set [1] (1-10 μM) is “large hyperpolarizations”. The “corneal / ocular surface epithelial disruption after LGE” value with LGE BALB/c mice (0.1 nmol three times daily) is given as “fully prevented the corneal epithelial disruption; also recorded: prevented ocular surface epithelial disruption at all time points”. Moreover, in the data set on LGE BALB/c mice (0.1 nmol topically three times daily), the “tear volume after LGE” value is reported as “restored tear secretion to basal levels; also recorded: maintained basal tear volume”. This molecule also returned an LG score change in the data set with LGE BALB/c mice (12-point scale, by Day 14, 0.1 nmol three times daily) of −0.6±0.6. The “amount recovered from tear washes at six hours” value in data set [2] (0.1 nmol (2 μL, 50 μM) instilled) was found to be 0.011 ± 0.004 pmol. In addition, in data set [2] (0.1 nmol single dose), the “duration of predicted therapeutic tear fluid levels” value is listed as “therapeutic levels for at least six hours”. Besides, the “LG staining of cornea and conjunctiva” value in data set [3] is “no corneal or conjunctival epithelial disruption”. For the same molecule, the “ocular toxicity (slit-lamp evaluation)” value in data set [3] (topical three times daily, two weeks) is listed as “no signs of ocular toxicity”. Further, the in vitro cytotoxicity result in the data set on FRT cells is given as “no appreciable in vitro cytotoxicity”. Further, the “CFTR activation (% Vmax)” value at human wildtype CFTR (100% = 20 μM forskolin) is about 50 % Vmax. On human wildtype CFTR (forskolin produced little or no further increase in current), the “extent of CFTR activation (Isc)” value was “fully activated CFTR”. The EC50 at human wildtype CFTR (read-out: EC50 for CFTR activation, FRT cells, wild-type CFTR, short-circuit current) is about 250 nM. The “tear fluid secretion in CF mice” value with tear fluid secretion (CF mice) is reported as “no effect in CF mice”. The “tear fluid secretion after single topical dose” value in the data set on tear fluid secretion (wild-type mice, B074 100 μM, J027 and K089 50 μM, VX-770 10 μM, cholera toxin 0.1 μg/mL, forskolin 20 μM, IBMX 250 μM) is on record as “doubled basal tear secretion for four hours; also recorded: increased tear fluid secretion by approximately two-fold for at least four hours”. Also, the “systemic absorption after topical delivery” value in data set [4] (topical) is “without detectable systemic absorption”. Besides, in data set [4] (two weeks of three times per day topical dosing), the “amount in mouse blood, brain, liver and kidney (limit of detection)” value is listed as under 10 fmol.

The values above are taken from patent US11084795B2, “CFTR regulators and methods of use thereof” (The Regents of the University of California, priority 2015, dated 2021).
